± gives the expanded uncertainty stated by the source. Each block holds one compound with its values, some of them ahead of it.
Assay: refractive index (Na D-line) (dimensionless); wn = mass fraction of the nth substance listed
Settings: 288.15 K, 100 kPa, Liquid, Standard Abbe refractometry

refractive index (w1 = 0.5794): 1.4892 ± 0.0004
Structure (SMILES): [Br-].[Br-].[Ca+2] [calcium bromide] + O

refractive index (w1 = 0.4075): 1.4428 ± 0.0004
Structure (SMILES): [Ca+2].[Cl-].[Cl-] [calcium chloride] + O

refractive index (w1 = 0.5929): 1.4744 ± 0.0004
Structure (SMILES): [Br-].[Li+] [lithium bromide] + O

refractive index (w1 = 0.4395): 1.4343 ± 0.0004
Structure (SMILES): [Cl-].[Li+] [lithium chloride] + O

— the NIST ThermoML archive (doi:10.1021/acs.jced.6b00855)
